pEC50, pIC50: −log10 of the molar value. Calls of active or inactive are those of the source. The rule behind the calls is not given here.
How the values were obtained:
[1] = Therapeutic index, ratio of IC50 for human H9 cells to EC50 for HIV1 3B; type: cell-based; conditions: read-out: Ratio IC50/EC50
[2] = tested on: Human immunodeficiency virus 1; assay: Antiviral activity against HIV1 3B in H9 cells after 4 days by p24-antigen ELISA; type: functional, organism-based; conditions: for pEC50: Human immunodeficiency virus 1, 3B, H9, 96 h
H9 = assay: Cytotoxicity against human H9 cells after 4 days; type: cell-based; conditions: H9, 96 h

Q: What does the source list for COc1cc2c(c(OC)c1OC)-c1c(cc3c(c1O)OCO3)C[C@H](C)[C@H](C)C2?
A: selectivity ratio [1]: 19.4; pEC50 [2]: 5.62; pIC50 (H9): 4.33

Q: With COc1cc2c(c(O)c1OC)-c1c(cc3c(c1OC)OCO3)C[C@H](C)[C@H](C)C2 (racemic) as the molecule, how does the selectivity ratio [1] read?
A: The selectivity ratio was over 68.

Q: What about the pEC50 [2] of the same molecule?
A: The pEC50 was over 6.19.

Q: What about the pIC50 (H9) of the same molecule?
A: Its pIC50 is 4.35.

Q: Which Activity [2] does the source give for C/C=C(/C)C(=O)O[C@@H]1c2cc(OC)c(OC)c(OC)c2-c2c(cc3c(c2OC)OCO3)C[C@H](C)[C@@]1(C)O [ANGELOYLGOMISIN P] here?
A: Its Activity is “inactive”.

Q: And the pIC50 (H9)?
A: Its pIC50 is under 4.31.

Q: What does the source list for COc1cc2c(c(OC)c1OC)-c1c(cc(OC)c(OC)c1OC)C[C@H](C)[C@@H](C)C2 [DEOXYSCHISANDRIN]?
A: Activity [2]: inactive; pIC50 (H9): < 4.22

Q: With COc1cc2c(c(O)c1OC)-c1c(cc(OC)c(OC)c1OC)C[C@@H](C)[C@@H](C)C2 [SCHISANHENOL] as the molecule, how does the selectivity ratio [1] read?
A: The selectivity ratio was 7.4.

Q: And the pEC50 [2]?
A: The pEC50 was 5.24.

Q: And the pIC50 (H9)?
A: Its pIC50 is 4.38.

Q: For C/C=C(/C)C(=O)O[C@H]1c2cc(OC)c(OC)c(OC)c2-c2c(cc3c(c2OC)OCO3)C[C@H](C)[C@]1(C)O [SCHISANTHERIN B], which selectivity ratio [1] is on record?
A: Its selectivity ratio is 1.2.

Q: What about the pEC50 [2] of the same molecule?
A: Its pEC50 is 4.40.

Q: And the pIC50 (H9)?
A: The pIC50 was under 4.31.

Q: For COc1cc2c(c(OC)c1OC)-c1c(cc(OC)c(OC)c1OC)C[C@](C)(O)[C@@H](C)C2 [SCHIZANDRIN], which Activity [2] is on record?
A: The Activity was “inactive”.

Q: What about the pIC50 (H9) of the same molecule?
A: Its pIC50 is under 4.24.

Q: With C/C=C(\C)C(=O)O[C@@H]1c2cc(OC)c(OC)c(OC)c2-c2c(cc3c(c2OC)OCO3)C[C@H](C)[C@@]1(C)O [TIGLOYLGOMISIN P] as the molecule, how does the selectivity ratio [1] read?
A: The selectivity ratio was 1.3.

Q: What about the pEC50 [2] of the same molecule?
A: Its pEC50 is 4.43.

Q: And the pIC50 (H9)?
A: The pIC50 was under 4.31.

Q: With Cc1cn([C@H]2C[C@H](N=[N+]=[N-])[C@@H](CO)O2)c(=O)[nH]c1=O [ZIDOVUDINE] as the molecule, how does the pEC50 [2] read?
A: Its pEC50 is 7.64.
